Laboratory results published in patent US8895738B2, “Mesoionic pyrido [1, 2-A] pyrimidine pesticides” (E I du Pont de Nemours and Company, priority 2010, dated 2014).
Structures can show the parent of a compound that is named as a salt.

What was measured:
Type in all cases: in vivo
[1] = tested on: maize plants (Prairie Hybrid 2431 organic field corn); test: Test P: vigor (height) of maize plants in greenhouse in absence of pest pressure, surface drench
Experimental: In this test, the effect of a compound of the invention on the vigor of maize plants grown in a greenhouse in absence of pest pressure was measured.
Single maize seeds (Prairie Hybrid 2431 organic field corn) were planted 2.0 to 2.5 cm deep in 10 cm×10 cm×8 cm plastic pots containing either Redi-Earth sphagnum peat moss-based potting media (Sun Gro Horticulture Canada Ltd., Vancouver, British Columbia) or a 50/50 mixture of Matapeake soil and sand. Seeded pots were initially watered to a 5 cm depth and placed in a growth chamber maintained at 25° C. within a 16 h light/8 h dark photoperiod. The pots were watered whenever the soil surface dried.
After 8 days from initial watering, the potted plants were treated by applying as a surface drench 40 mL of an aqueous treatment mixture containing either 0.2 or 2.5 mg of Compound 3. To the pots of untreated control plants, 40 mL of tap water was similarly applied. Treatments and untreated controls were replicated 10 times.
Treated and untreated plants were then arranged in a complete randomized block design in a greenhouse maintained at 25.6-27.8° C. during the day and 23.0-25.0° C. at night. Supplemental lighting was added when outside light levels dropped below 200 watts m^−2 during a 16-h growing period, except that no supplemental lighting was activated when outside light energy had already accumulated to more than 5000 w h m^−2 during the growing period. Greenhouse shading closed when outside light levels rose above 600 watts m^−2 for more than 20 minutes.
No modifications to relative humidity were made. Tap water irrigation was provided twice daily as needed to maintain soil moisture. Every second or third day the plants were fertilized with irrigation water containing 100 ppm N—P—K from Peters® soluble 20-20-20 general purpose fertilizer (The Scotts Company, Marysville, Ohio, U.S.A.). The applied nutrient levels were considered less that ideal for optimal growth of maize plants.
Plant height was determined at 0, 7, 14, 21 and 28 days after treatment by measuring the length from the vertically extended longest leaf tip to the soil surface. The heights averaged across the 10 replicates are listed in Test Tables 1 and 2 for plants grown in Redi-Earth soil and Matapeake Soil/Sand, respectively.

[2] = tested on: cotton melon aphid (Aphis gossypii); test: Test C: control of cotton melon aphid on cotton plant, contact and/or systemic
Description: For evaluating control of cotton melon aphid (Aphis gossypii) through contact and/or systemic means, the test unit consisted of a small open container with a 6-7-day-old cotton plant inside. This was pre-infested with 30-40 insects on a piece of leaf according to the cut-leaf method described for Test B, and the soil of the test unit was covered with a layer of sand.
Test compounds were formulated and sprayed at 250 and/or 50 ppm as described for Test B. The applications were replicated three times. After spraying, the test units were maintained in a growth chamber and then visually rated as described for […].

[3] = tested on: Rice plants (indica cultivar ‘JAYA’); test: Test K: vigor, height and panicle length of rice crop outdoors, Gujarat; details: for crop vigor (visual rating, 0 to 200% scale, untreated = 100%): 32 days after application, Nilaparvata lugens level moderate; for average height of rice plants / average panicle length of rice plants: 45 days after application; for average height of rice plants: untreated 0.78 m; for average panicle length of rice plants: untreated 22.4 cm
Experimental: (§1) To evaluate the effect of application of a compound of the invention on the vigor of rice crops grown under outdoor conditions, Tests 1 through 0 were conducted. “a.i.” refers to the amount of active ingredient applied.
Rice plants (indica cultivar ‘JAYA’) were transplanted into flooded 6 m×5 m test plots of clay loam soil under shade cloth in the State of Gujarat, India during the hot season before monsoon arrival, and grown using local agronomic practices. Accordingly, after 44 days from transplanting, all rice plants in this test were sprayed with an aqueous mixture containing 30 g a.i./ha of cypermethrin and 100 g a.i./ha of picoxystrobin. After 53 days from transplanting, aqueous mixtures of Compound 3 were applied to the foliage of the rice plants at 6.25, 12.5, 25 or 50 g a.i./ha in a spray volume of 500 L/ha using a backpack sprayer. Plots of unsprayed rice plants were used as controls. Each treatment and control was replicated three times, and the plots were arranged in a randomized complete block design. At the time of application of Compound 3, the pest level of rice brown planthopper (Nilaparvata lugens) was moderate, but still above the level considered economically significant.
At 45 days after application, the height and panicle length of the rice plants were measured. Plant height was determined by measuring length from vertically extended longest leaf tip to soil surface. Panicle length was measured similarly. The average height of rice plants treated with 6.25, 12.5, 25 and 50 g a.i./ha of Compound 3 was 0.94, 0.92, 0.92 and 0.99 m, respectively, compared to 0.78 m for untreated control plants. The average panicle length of rice plants treated with 6.25, 12.5, 25 and 50 g a.i./ha of Compound 3 was 23.8, 23.7, 24.9 and 24.6 cm, respectively, compared to 22.4 cm for untreated control plants.

[4] = tested on: Rice plants (indica cultivar ‘MTU1010’); test: Test J: vigor of rice crop outdoors, two foliar applications, West Godavri; details: applied twice, 48 days after first application, Nilaparvata lugens level high
Experimental: as §1
Rice plants (indica cultivar ‘MTU1010’) were transplanted into flooded 5 m×3 m test plots of clay loam soil in the delta region of the West Godavri district, Andhra Pradesh, India, during the rainy season, and grown using local agronomic practices. After 52 days, aqueous mixtures of Compound 3 were applied to the foliage of the rice plants at 12.5, 25 or 50 g a.i./ha in a spray volume of 387 L/ha using a backpack sprayer. Plots of unsprayed rice plants were used as controls. Each treatment and control was replicated three times, and the plots were arranged in a randomized complete block design. At the time of application of Compound 3, the pest level of rice brown planthopper (Nilaparvata lugens) was high, i.e. much above the level considered economically significant. 20 days after the first treatment, the foliar applications of aqueous mixtures of Compound 3 were repeated at the same application rates in a spray volume of 467 L/ha.

[5] = Matapeake Soil/Sand, 0.2 mg a.i./pot
[6] = Matapeake Soil/Sand, 2.5 mg a.i./pot
[7] = Redi-Earth Soil, 0.2 mg a.i./pot
[8] = Redi-Earth Soil, 2.5 mg a.i./pot

O=c1c(-c2cccc(C(F)(F)F)c2)c([O-])[n+](Cc2cncnc2)c2ccccn12 [Compound 3, 2-hydroxy-4-oxo-1-(5-pyrimidinylmethyl)-3-[3-(trifluoromethyl)phenyl]-4H-pyrido[1,2-a]pyrimidinium inner salt]
Height (cm) at Days after Treatment 0 days [1, 5]: 22 cm
Height (cm) at Days after Treatment 7 days [1, 5]: 49 cm
Height (cm) at Days after Treatment 14 days [1, 5]: 66 cm
Height (cm) at Days after Treatment 21 days [1, 5]: 76 cm
Height (cm) at Days after Treatment 28 days [1, 5]: 87 cm
Height (cm) at Days after Treatment 0 days [1, 6]: 22 cm
Height (cm) at Days after Treatment 7 days [1, 6]: 46 cm
Height (cm) at Days after Treatment 14 days [1, 6]: 65 cm
Height (cm) at Days after Treatment 21 days [1, 6]: 78 cm
Height (cm) at Days after Treatment 28 days [1, 6]: 88 cm
Height (cm) at Days after Treatment 0 days [1, 7]: 22 cm
Height (cm) at Days after Treatment 7 days [1, 7]: 53 cm
Height (cm) at Days after Treatment 14 days [1, 7]: 85 cm
Height (cm) at Days after Treatment 21 days [1, 7]: 111 cm
Height (cm) at Days after Treatment 28 days [1, 7]: 131 cm
Height (cm) at Days after Treatment 0 days [1, 8]: 21 cm
Height (cm) at Days after Treatment 7 days [1, 8]: 53 cm
Height (cm) at Days after Treatment 14 days [1, 8]: 85 cm
Height (cm) at Days after Treatment 21 days [1, 8]: 111 cm
Height (cm) at Days after Treatment 28 days [1, 8]: 137 cm
growth enhancing effect on maize plants ([1]; pest-free environment, nutrient constrained, both soils, 0.2 or 2.5 mg per pot): little growth enhancing effect was noticeable
mortality at 50 ppm ([2]; sprayed at 50 ppm): ≥ 80%
mortality at 250 ppm ([2]; sprayed at 250 ppm): ≥ 80%
crop vigor (visual rating, 0 to 200% scale, untreated = 100%) ([3]; 6.25 g a.i./ha foliar): 115%
average height of rice plants ([3]; 6.25 g a.i./ha): 0.94 m
average panicle length of rice plants ([3]; 6.25 g a.i./ha): 23.8 cm
crop vigor (visual rating, 0 to 200% scale, untreated = 100%) ([3]; 12.5 g a.i./ha foliar): 113%
average height of rice plants ([3]; 12.5 g a.i./ha): 0.92 m
average panicle length of rice plants ([3]; 12.5 g a.i./ha): 23.7 cm
crop vigor (visual rating, 0 to 200% scale, untreated = 100%) ([3]; 25 g a.i./ha foliar): 122%
average height of rice plants ([3]; 25 g a.i./ha): 0.92 m
average panicle length of rice plants ([3]; 25 g a.i./ha): 24.9 cm
crop vigor (visual rating, 0 to 200% scale, untreated = 100%) ([3]; 50 g a.i./ha foliar): 115%
average height of rice plants ([3]; 50 g a.i./ha): 0.99 m
average panicle length of rice plants ([3]; 50 g a.i./ha): 24.6 cm
crop vigor (visual rating, 0 to 200% scale, untreated = 100%) ([4]; 12.5 g a.i./ha foliar): 148%
crop vigor (visual rating, 0 to 200% scale, untreated = 100%) ([4]; 25 g a.i./ha foliar): 148%
crop vigor (visual rating, 0 to 200% scale, untreated = 100%) ([4]; 50 g a.i./ha foliar): 148%
